From US11925632B2, “Isoquinoline derivatives for use in treating GLUT1 deficiency syndrome” (GLIAPHARM SA, priority 2019, dated 2024) come the findings set out here.

One assay concerns astrocytes. The assay is described as follows: Extracellular medium acidification (SNARF5) assay in astrocytes. Conditions: Mus musculus, Astrocyte, 1.5 h; astrocytes in vitro, 90 min stimulation, 10 nM to 30 μM. It counts as cell-based. The method, then: Secretion of lactate was measured indirectly through the acidification of extracellular medium using extracellular pH sensor SNARE-5F-(AND-6)-CAR (SNARF5) as described below.
Secretion of lactate was measured indirectly through the acidification of extracellular medium using extracellular pH sensor […] (SNARF5). After washing cells twice with stimulation medium (DMEM (D5030, Sigma), 1 mM […], and 5 mM Glucose, pH 7.4) at 37° C., cells were stimulated with compounds at a final concentration ranging from 10 nM to 30 μM in 50 μl per well of stimulation medium supplemented with 10 μM of SNARF5 (Life Technologies Corporation). Each compound was tested in two different plates for duplicates. After 90 min stimulation, fluorescence was read at exc. (excitation) 480 nm/emm. (emission) 580 nm and at exc 480 nm/emm. 630 nm. The ratio of fluorescence between 630 nm and 580 emission values, which is proportional to extracellular pH, was calculated. In each plate, 8 wells were used for negative controls (DMSO 0.1%) and 8 wells were used for positive controls (CCCP 2 μM in DMSO).
Table 3 below lists compounds that are active on the extracellular medium acidification (SNARF5) assay in astrocytes in vitro, which indicates their ability to produce lactate. ‘+’ indicates activity of compounds with EC50>5 μM; ‘++’ indicates activity of compounds with EC50<5 μM.
Primary cultures of cerebrocortical astrocytes were obtained from 1 to 2-day-old OF1 mouse pups (Charles River). Briefly, cortices were isolated and minced in small pieces under a dissecting microscope. The cells were incubated for 30 min at 37° C. in a solution containing 20 U/ml papain, 1 mM L-cysteine and 10 kU/ml DNase I. After dissociation, papain activity was stopped by the addition of fetal calf serum (FCS). Single-cell suspension was then obtained by mechanical dissociation, which consisted in cells trituration in a DMEM D7777 medium supplemented with 44 mm NaHCO3, 10 ml/L antibiotic/antimycotic solution and 10% FCS. The cells were seeded at an average density of ˜10′000 cells/cm^2 on poly-D-lysine coated 96- or 12-well culture plates, depending on their use, and grown in DMEM D7777 medium supplemented with 44 mm NaHCO3, 10 ml/L antibiotic/antimycotic solution and 10% FCS at 37° C. in a humidified atmosphere containing 5% CO2/95% air. Culture medium was renewed twice a week. Cells were stimulated and harvested between DIV14 and DIV17, when confluence and cell growth were optimal.

A further assay relates to wild-type (WT) mice. The assay is described as follows: Cerebral extracellular lactate and glucose biosensors, wild-type littermates. It counts as in vivo, mouse. Conditions: medial prefrontal cortex, 10 mg/kg and/or 100 mg/kg oral, AUC ratio vs vehicle. From the text: Transgenic mice on 129/SvJ genetic background in which GLUT1 has been knocked-down (GLUT1-DS mice) were used (Wang et al., […], Human Molecular Genetics, 15(7)). Mating colonies were composed of wild-type female mice and GLUT1-DS male mice, or GLUT1-DS female mice and wild-type male mice. F1 pups were genotyped after ear punching at weaning using PCR to determine genotype. Mice of 2 to 3 months of age were used.
Cerebral extracellular levels of lactate and glucose were monitored in vivo in GLUT1-DS transgenic male mice and wild-type (WT) male littermates using lactate and glucose biosensors (Pinnacle Technology), according to the manufacturer's instructions. […] After surgery, mice were monitored closely and received analgesic treatment for at least 4 days. After mice had fully recovered from surgery, compounds of the invention of vehicle were administered per os as previously described and cerebral levels of extracellular lactate or glucose were dynamically recorded for 6 hours using lactate or glucose biosensors, respectively. […] Concentration of cerebral extracellular lactate or glucose was calculated from lactate or glucose probe electric signals, respectively, using post-calibration values, as described by manufacturer. […]

Assay [1] has as its system astrocytes transfected with scramble siRNA. The assay is described as follows: 2-deoxyglucose (2DG) uptake, scramble siRNA astrocytes. The note with it: 30 min treatment, 1 or 10 μM, vs vehicle. It counts as cell-based, mouse. As for the experimental part:
Astrocytes grown on 12-well plates and transfected with either scramble siRNA or GLUT1 siRNA were used. 1 day after having replaced transfection medium (DIV13), 2DG uptake was measured after treatment for 30 min with Vehicle (0.1% DMSO) or with the compound of the invention (1) (concentrations of 1 or 10 μM). During treatment, 1 mM 2DG was added to the medium for assessment of 2DG uptake. At the end of the stimulation, medium was removed and replaced with 150 μl NaOH 0.1M, and stored at −20° C. After thawing, cells were collected using cell scraper and heated for 40 min at 85° C. Then, 150 ul HCl 0.1M and TAE buffer 200 mM was added to each condition. 20 μl were added to a transparent 96-well plate and 2DG was quantified by addition of a reaction solution containing 50 mM TAE, 50 mM KCl, 0.02% BSA, 0.1 mM NADP, 0.2 U/ml diaphorase, 2 mM resazurin and 20 U/ml glucose-6-phosphate dehydrogenase. Concentration of 2DG in samples were calculated by comparison with standard curve of deoxy-glucose-6-phosphate ranging from 0 to 1 nmoles.
Scramble and GLUT1 siRNA sequences were as following:
Cells were grown in transfection medium for 3 days at 37° C. in a humidified atmosphere containing 5% CO2/95% air. […]
2DG uptake after treatment with Veh or compound of the invention (1) was measured in astrocytes transfected with scramble siRNA or GLUT1 siRNA (FIG. 4A).

Structures are written as SMILES.

For the compound `COc1cc2ccnc(Nc3ccc(OC(F)(F)F)cc3)c2cc1OC` [Example 1, 6,7-dimethoxy-N-(4-(trifluoromethoxy)phenyl)isoquinolin-1-amine], the EC50 in the assay on astrocytes was above 5 µM. Also, in the assay with wild-type (WT) mice, the “Extracellular glucose levels in the brain” value is “significantly increases” and the “Extracellular lactate levels in the brain” value is reported as “significantly increases”. Moreover, the 2DG uptake result in assay [1] was “significantly enhances 2DG uptake”.

One may read the EC50 as the concentration that produces a half-maximal response. A low value points to greater potency.
